The structures appear in SMILES notation. Some results are limits rather than exact numbers.

For experiment [1], the system named is Phaeodactylum tricornutum. Kind of experiment: Fatty acids extraction and analysis (FAME, GC-FID). Type of experiment: cell-based. To be noted: for more fatty acid per cell than the control: relative to NO3− replete cells (control). The procedure: Fatty acid methyl esters (FAME) extraction and methylation was based on a method developed by Rodriguez-Ruiz et al., 1998. […] The vials were sealed with a Teflon-lined cap and boiled in a water-bath for 1 h. After incubation the vials were cooled to room temperature and 1 ml of milliQ water was added to each sample. Samples were vortexed and centrifuged (5 min, 3000 rpm) to allow phase separation and the top […] phases were transferred with glass-pipettes to GC vials with Teflon-lined caps (Fisher Scientific). FAME analyses were performed in a gas-chromatographer (GC 2010 Shimadzu, Japan) equipped with a TR-FAME (0.25 μm×60 m) column (Thermo electron corporation, USA) and a flame ionization detector (FID). Helium was used as the carrier gas at 26 psi. The injector and detector temperatures were 240° C. and 250° C. respectively. The time-oven temperature program was: 140° C. (5 min) increasing up to 240° C. at 4° C.·min^-1. FAMEs were identified by reference to authentic standards (SupelcoTM 37 component FAME, Sigma-Aldrich) processed and analyzed under the same conditions.

In experiment [2] the test system is Phaeodactylum tricornutum. Kind of experiment: Metabolite profiling (LC-MS/MS). Type of experiment: cell-based. The conditions noted are these: W-mediated NR inactivation of NO3− grown cells. The method, then:
Metabolite profiles were obtained via the method described by Bennette et al. (2010). Cells were quenched via rapid filtration of 14.3 million cells followed by immediate transfer of filters to 1.8 mL of 80:20 methanol:water at −20° C. in 35×10 mm Petri dishes. Filters were incubated at −20° C. for 15 minutes and scraped clean of cells in the extraction solvent. The 1.8 mL of extraction solvent with cells was transferred to 2 mL eppendorf tubes, followed by a 0.25 mL 80:20 methanol:water at −20° C. wash of the filter to collect remaining quenched cell material. The eppendorf tubes were spun at 4° C., and supernatant was collected. To the cell pellet, 100 μL 80:20 methanol:water at −20° C. was added, vortexed, incubated at −20° C. for 15 minutes, and pelletted. The 100 μL was combined with the original supernatant, and 50 μL transferred to GC vials. […] Standards for each metabolite, run with sample background, were used for quantification. The column used was a Synergi 2.5μ hydro RP 100A, size 100×2 mm (Phenomonex, Torrance, Calif., USA).

Experiment [3] has as its system Selenastrum capricornutum. The conditions noted are these: sodium tungsten in small concentration (≦400 μM); Strigul et al. 2009; cited from earlier work.
Experiment [4] concerns Phaeodactylum tricornutum. The conditions noted are these: preliminary LC-MS analyses, FIG. 6. The source says:
FIG. 6. Liquid-chromatography mass-spectrometry (LC-MS) plot representing the relative content of triacylglycerides (TAG) species between cells growing with nitrate or ammonium as nitrogen sources. Total lipids from P. tricronutum cells growing with nitrate or ammonium as nitrogen source (from the experiments described in the main text) were extracted with the Bligh-Dyer method (Bligh and Dyer) and analysed by liquid-chromatography mass-spectrometry (LC-MS).

Experiment [5] has as its system nitrate reductase (NR) protein. Kind of experiment: NR western-blot. To be noted: FIG. 2. Type of experiment: cell-based, Phaeodactylum tricornutum. The method, then:
Protein concentrations were determined with the bicinchoninic acid method (BCA, Pierce). […] Blots were probed for 1 h with anti-NR assimilatory (1:500) purchased from Agrisera (part no. AS08-310). Subsequently, an HRP-conjugated polyclonal goat anti-rabbit IgC antibody (Pierce, 1:10000) was used followed by chemifluorescence detection (Amersham™ ECL Plus, RPN2132). Image acquisition was performed with a molecular imager XR+ system (BIORAD, USA).

Experiment [6] relates to Phaeodactylum tricornutum. The experiment in a line: Growth of P. tricornutum cultures in different nitrogen regimes (cell densities, Coulter counter). The conditions noted are these: relative to the control (NO3+Mo). Type of experiment: cell-based. The procedure: This was also the reason to perform all experiments in artificial medium. […] During the period of acclimation the cultures were maintained at 18° C., under continuous light using liner cool fluorescent lamps emitting white light at 300 μmol quanta·m^-2·s^-1, and 0.2 μm filtered air bubbling. Periodic dilutions with fresh media were also executed to main the cells in exponential phase of growth. […] The light intensity and temperature were maintained as described above. After 3 days (72 h) of growth samples were collected and processed for further analyses (described bellow). Experiments were performed at least in triplicate. The cellular densities were monitored with a Coulter counter multisizer 3 (Beckman Coulter Inc, Fullerton, Calif., USA).

Experiment [7] deals with Phaeodactylum tricornutum. Kind of experiment: Lipid body imaging (BODIPY, epifluorescence microscopy). Type of experiment: cell-based. The conditions noted are these: BODIPY staining, FIG. 4. The procedure: Intracellular lipid bodies were stained with 10 μg·ml^-1 BODIPY (4,4-difluoro-3a, 4a-diaza-s-indacene) probe (D-3922, Molecular Probes, Invitrogen, USA). Cells were subsequently observed with an inverted epifluorescence microscope Olympus IX71 (Olympus, Japan) equipped with a mercury X-CITE 120 lamp (EXFO, Canada), using the 482/536 nm excitation/emission filter. Images were acquired with a […] high-speed monochromatic cooled CCD camera system and IPLab for Mac (v3.9) for image processing and analysis.

`[Na+].[Na+].[O]=[W](=[O])([O-])[O-]` [W, sodium tungsten]: in the experiment on Dunaliella terciolecta (D. terciolecta, W in conjunction with NH4+), the average growth rate result was “increased the average growth rate”. Besides, the “more fatty acid per unit volume than nitrate-grown cultures” value with Dunaliella terciolecta (D. terciolecta, W in conjunction with NH4+, after 3 days, FIG. 7) is 88%. Also, the “higher rates of lipid production per unit biomass than in controlled conditions” value in the experiment on Dunaliella terciolecta (tungsten in combination with ammonium, organism not given) was 87%. In experiment [1] (P. tricornutum, 3 days, mean ± SD, n ≧ 3), the “Fatty acids cell^−1 (total fatty acid)” value is 3.99 ± 0.24 pg. The “higher rate of fatty acid accumulated per unit volume” value in experiment [1] (W added to NH4+ growing cultures, compared to all the other situations, FIG. 1B) is “over 30%”. Moreover, the “more fatty acid per cell than the control” value in experiment [1] (3 days) came to 40%. Further, in experiment [2], the “glutamate and glutamine levels, share of control levels” value is “about 10%”. The effect on growth entry in experiment [3] is “stimulated growth”.

For the compound `Cl.N` [NH4+, NH4Cl], the “TAG species relative to NO3− grown cells” value in experiment [4] was “all TAG species of P. tricornutum NH4+ grown cells increase”. For the same compound, the “more total fatty acid than with NO3−” value in the experiment on Dunaliella terciolecta (D. terciolecta, NH4+ as nitrogen source) is on record as 13%. The “more fatty acid per cell than the control” value in experiment [1] (3 days) is no less than 40%. Besides, in experiment [5], the “NR protein band (approximately 100 kDa) in western-blot” value is “weak band”. In experiment [6], the “decrease of growth rate” value is given as 10%. Moreover, the “number of lipid bodies per cell” value in experiment [7] is recorded as “very high numbers”.

Source of the values: patent publication US20120282676A1, “Compositions and Methods for Enhancing Lipid Production in Marine Microalgae” (Old Queens, priority 2011, published 2012).
